Assay results taken from US8053392B2, “Auxin acid-catalyzed stable microemulsion pesticide formulation” (PBI/Gordon Corporation, priority 2007, dated 2011).

Experiment: Chemical stability tests of active ingredients in microemulsion formulations at 40° C. for one month
Type: physicochemical
Protocol: Chemical stability tests were conducted on four-way active ingredient microemulsion formulations at 40° C. for one month to determine the active ingredient percent difference at the end of one month.
Other formulations were subjected to accelerated chemical stability tests at a temperature of 40° C. for a period of one month to determine total chemical stability of the active ingredients.
Only the chemical stability of pyraflufen-ethyl was analyzed because of its susceptibility to hydrolysis, as set forth in Examples 13-16.

[1] = four-way microemulsion of Example 11
[2] = four-way microemulsion of Example 12

SMILES	Chemical Stability (active ingredient percent difference) [1]	Chemical Stability (active ingredient percent difference) [2]	Pyraflufen-ethyl Chemical Stability (formulation of Example 13 (2,4-D acid 9.0%, Dicamba […], Pyraflufen-ethyl 0.6%))	Pyraflufen-ethyl Chemical Stability (formulation of Example 14 (2,4-D acid 9.0%, R(+)MCPP 1.63%, Pyraflufen-ethyl 0.6%))	Pyraflufen-ethyl Chemical Stability (formulation of Example 15 (2,4-D acid 9.0%, R(+)MCPP 1.63%, Dicamba […], Pyraflufen-ethyl 0.6%))	Pyraflufen-ethyl Chemical Stability (formulation of Example 16 (2,4-D acid 9.0%, Pyraflufen-ethyl 0.1%))
CCCCC(CC)COC(=O)COc1ccc(Cl)cc1Cl (stereo not shown) [2,4-D 2EHE, 2,4-D 2-ethyl hexyl ester]	+1.25%	+2.02%	–	–	–	–
CCOC(=O)COc1cc(-c2nn(C)c(OC(F)F)c2Cl)c(F)cc1Cl [Pyraflufen-ethyl]	+1.44%	−0.90%	+5.89%	+1.05%	+1.07%	+0.93%
O=C(O)COc1nc(Cl)c(Cl)cc1Cl [Triclopyr]	+1.94%	+2.38%	–	–	–	–
